Experimental data: patent US20240366648A1, “NAD-AUGMENTATION THERAPY FOR PARKINSON'S DISEASE” (Vestlandets Innovasjonsselskap AS (VIS), priority 2021, published 2024)

Columns and labels:
[1] = tested on: nigrostriatal degeneration or denervation (DAT loss); assay: Follow-up DAT-scan of phase I participants (Example 4); type: in vivo, human
From the text: In the study of the present Example 4, […] of the participants from the study of Example 2 (9 receiving placebo and 11 receiving NR) were examined by a second DAT-scan 1-1.5 year after the completion of the study, for entry into the study of Example 3. […] FIG. 15 represents box plots showing the change (delta) of the DAT-scan tracer uptake in the posterior putamen between the second and first examination (delta=scan2−scan1). […] The data is normally distributed (Shapiro-Wilk normality test).

[2] = tested on: gene expression in PBMCs; assay: RNA-seq differential gene expression in PBMCs; type: in vivo, human
Protocol: For all subjects at both visits, total RNA was extracted from muscle biopsy tissue and PBMC homogenate using RNeasy plus mini kit (Qiagen) with on-column DNase treatment according to manufacturer's protocol. The final elution was made in 45 ul of dH2O. The concentration and integrity of the total RNA were estimated by Ribogreen assay (Thermo Fisher Scientific), and Fragment Analyzer (Advanced Analytical), respectively, and 10 ng of total RNA was used for downstream RNA-seq applications using the SMARTer Stranded Total RNA-Seq Kit v2—Pico Input Mammalian Kit (IlluminaTakara Bio USA, Inc., Mountian View, CA) as per manufacturer's recommended protocol. Library quantity was assessed by Picogreen Assay (Thermo Fisher Scientific), and the library quality was estimated by utilizing a DNA High Sense chip on a Caliper Gx (Perkin Elmer). Accurate quantification of the final libraries for sequencing applications was determined using the qPCR-based KAPA Biosystems Library Quantification kit (Kapa Biosystems, Inc.). Each library pooled equimolar prior to clustering. One hundred bp paired-end sequencing was performed on an Illumina NovaSeq S4 sequencer (Illumina, Inc.). Two subjects were discarded from the PBMC samples and two from the muscle samples due to either insufficient tissue quantity, participant drop out/lack of sample, or being outliers in expression.
FASTQ files were assessed using fastQC version 0.11.9. Quantification at the transcript level was calculated using Salmon version 1.3.0 with fragment-level GC bias correction against the GENCODE version 35, with the whole genome as decoy sequence. Transcript-level quantification was collapsed onto gene-level using the tximport R package version 1.8.0. Genes in non-canonical chromosomes and scaffolds and transcripts encoded by the mitochondrial genome were filtered out, together with non-protein-coding genes. Low-expressed genes were likewise removed from downstream analyses (expression below 10 reads for 75% of the samples). PBMC and muscle datasets were analysed independently. For PBMC samples, cell type composition was assessed employing ABIS. Differential gene expression was performed using the DESeq2 R package version 1.22.2. The generalized linear model formula accounted for both interindividual variability between subjects and the normal course of the experiment (baseline for each subject and baseline for the time-course). Multiple hypothesis testing was performed with the default automatic filtering of DESeq2 followed by false discovery rate (FDR) calculation by the Benjamini-Hochberg procedure.

[3] = tested on: mice; conditions: Xie et al. 2019; cited from earlier work
[4] = tested on: drosophila fly models; conditions: Schöndorf et al. 2018; cited from earlier work
[5] = tested on: patients with ALS; conditions: de la Rubia et al. 2019; cited from earlier work

For `NC(=O)c1ccc[n+]([C@@H]2O[C@H](CO)[C@@H](O)[C@H]2O)c1` [NR, nicotinamide riboside], the “progression of the DAT loss between first and second DAT-scan, NR vs placebo group” value ([1]; second scan 1-1.5 year after the study, posterior putamen, t-test p=0.35) was “no significant difference”, the “trend in progression of nigrostriatal denervation in NR group” value ([1]; smaller difference between the two examinations, p=0.35) was “non-significant trend for decreased progression” and the “BLOC1S2 expression in PBMCs” value ([2]; NR vs placebo) was “upregulation”. For the same compound, the “functional enrichment in PBMCs: ribosomal, proteasomal, lysosomal and mitochondrial (oxidative phosphorylation) pathways” value ([2]; NR vs placebo) was “highly significant upregulation”, the “genes encoding known NAD biosynthetic enzymes including NMRK1” value ([2]; NR vs placebo) was “No significant changes” and the “number of genes significantly associated with NR supplementation in PBMCs” value ([2]; NR vs placebo) was 13 genes. The “Direction of pathway enrichment (MitoCarta v3.0): mtRNA metabolism” value ([2]; P 0.003136, corrected P 0.13170171) was “DOWN”, the “Direction of pathway enrichment (MitoCarta v3.0): mt-tRNA modifications” value ([2]; P 0.009994, corrected P 0.209874) was “DOWN” and the “Direction of pathway enrichment (MitoCarta v3.0): Cl assembly factors” value ([2]; P 0.013122, corrected P 0.183708) was “DOWN”. The “Direction of pathway enrichment (MitoCarta v3.0): mtRNA granules” value ([2]; P 0.018336, corrected P 0.192528) was “DOWN”, the “Direction of pathway enrichment (MitoCarta v3.0): Vitamin metabolism” value ([2]; P 0.02605831, corrected P 0.21888977) was “DOWN” and the “Direction of pathway enrichment (MitoCarta v3.0): Mitochondrial ribosome assembly” value ([2]; P 0.027256, corrected P 0.190792) was “DOWN”. For the same compound, the “Direction of pathway enrichment (MitoCarta v3.0): mt-tRNA synthetases” value ([2]; P 0.03548, corrected P 0.21288) was “DOWN”, the “Direction of pathway enrichment (MitoCarta v3.0): OXPHOS assembly factors” value ([2]; P 0.04239743, corrected P 0.2225865) was “DOWN” and the “association with estimated cell type proportions in PBMC samples” value ([2]; p>0.5) was “did not show a significant association”. For the same compound, the neuroprotection in mice [3] was “neuroprotective effects”, the “mitochondrial defects and dopaminergic neuronal loss in drosophila fly models” value [4] was “rescues mitochondrial defects and age-related dopaminergic neuronal loss” and the “clinical effect in patients with ALS” value [5] was “substantial clinical improvement”.
